Test results reported in the NIST ThermoML archive (doi:10.1016/j.jct.2018.07.006).
Values joined by “and” are separate entries in the source; they are usually repeats but may differ in a detail not shown here. Identical values can stand only once. Numbers after ± are expanded uncertainties.

Test: mn = molality of the nth substance listed, in mol/kg
Settings: 100 kPa, Liquid; for speed of sound: Frequency=3 MHz, Single path-length method; for mass density: Vibrating tube method

Structure (SMILES): CC(C)(CO)[C@@H](O)C(=O)NCCCO [d-Panthenol] + O
- speed of sound (293.15 K, m1 = 0.05): 1489.4 ± 2 m/s
- speed of sound (293.15 K, m1 = 0.1): 1494.1 ± 2 m/s
- speed of sound (293.15 K, m1 = 0.15): 1498.5 ± 2 m/s
- mass density (293.15 K, m1 = 0.05): 999.509 ± 0.3 kg/m3
- mass density (293.15 K, m1 = 0.1): 1001.62 ± 0.32 kg/m3
- mass density (293.15 K, m1 = 0.15): 1003.34 ± 0.32 kg/m3
- speed of sound (298.15 K, m1 = 0.05): 1503 ± 2 m/s
- speed of sound (298.15 K, m1 = 0.1): 1507.6 ± 2 m/s
- speed of sound (298.15 K, m1 = 0.15): 1511.6 ± 2 m/s
- mass density (298.15 K, m1 = 0.05): 998.191 ± 0.3 kg/m3
- mass density (298.15 K, m1 = 0.1): 1000.22 ± 0.31 kg/m3
- mass density (298.15 K, m1 = 0.15): 1002.12 ± 0.32 kg/m3 and 1002.09 ± 0.32 kg/m3
- speed of sound (303.15 K, m1 = 0.05): 1515.5 ± 2 m/s and 1516 ± 2 m/s
- speed of sound (303.15 K, m1 = 0.1): 1519.5 ± 2 m/s and 1517.9 ± 2 m/s
- speed of sound (303.15 K, m1 = 0.15): 1522.9 ± 2 m/s
- mass density (303.15 K, m1 = 0.05): 996.926 ± 0.3 kg/m3
- mass density (303.15 K, m1 = 0.1): 998.987 ± 0.31 kg/m3
- mass density (303.15 K, m1 = 0.15): 1000.58 ± 0.32 kg/m3
- speed of sound (308.15 K, m1 = 0.05): 1525.2 ± 2 m/s
- speed of sound (308.15 K, m1 = 0.1): 1529.1 ± 2.2 m/s
- speed of sound (308.15 K, m1 = 0.15): 1532.5 ± 2 m/s
- mass density (308.15 K, m1 = 0.05): 995.295 ± 0.3 kg/m3
- mass density (308.15 K, m1 = 0.1): 997.338 ± 0.31 kg/m3
- mass density (308.15 K, m1 = 0.15): 998.985 ± 0.32 kg/m3
